Data published in the NIST ThermoML archive (doi:10.1016/j.jct.2008.01.023).

How the values were obtained:
[1] = refractive index (Na D-line) (dimensionless); xn = mol fraction of the nth substance listed; settings: 298.15 K, 101 kPa, Liquid, Standard Abbe refractometry
[2] = xn = mol fraction of the nth substance listed; settings: 298.15 K, 101 kPa, Liquid
[3] = refractive index (Na D-line) (dimensionless); settings: 298.15 K; 101.33 kPa; Liquid; Standard Abbe refractometry
[4] = 298.15 K; 101.33 kPa; Liquid

CCOCCOCCO [3,6-dioxa-1-octanol] + CCCCn1cc[n+](C)c1.COS(=O)(=O)[O-]
Settings | mass density, [2] [kg/m3] | refractive index, [1]
x2 = 0.0517 | 1003.36 | 1.4307
x2 = 0.0891 | 1016.08 | 1.4339
x2 = 0.1483 | 1035.02 | 1.4388
x2 = 0.2233 | 1057.1 | 1.4443
x2 = 0.2901 | 1074.98 | 1.4488
x2 = 0.3194 | 1082.5 | 1.4507
x2 = 0.3902 | 1099.82 | 1.4548
x2 = 0.4732 | 1118.6 | 1.4593
x2 = 0.5364 | 1131.83 | 1.4626
x2 = 0.6235 | 1148.55 | 1.4663
x2 = 0.696 | 1161.73 | 1.4697
x2 = 0.8065 | 1179.9 | 1.4735
x2 = 0.8947 | 1193.18 | 1.4763

CCOCCOCCO [3,6-dioxa-1-octanol] + CCCCn1cc[n+](C)c1.F[B-](F)(F)F
Settings | mass density, [2] [kg/m3] | refractive index, [1]
x2 = 0.0544 | 1003.36 | 1.4268
x2 = 0.1016 | 1018.2 | 1.4274
x2 = 0.1492 | 1032.87 | 1.4277
x2 = 0.1941 | 1045.1 | 1.4278
x2 = 0.2686 | 1065.22 | 1.4278
x2 = 0.3215 | 1078.37 | 1.4277
x2 = 0.3932 | 1094.93 | 1.4273
x2 = 0.5108 | 1119.82 | 1.4265
x2 = 0.6016 | 1137.49 | 1.4257
x2 = 0.6657 | 1149.16 | 1.425
x2 = 0.6998 | 1155.07 | 1.4247
x2 = 0.8304 | 1176.5 | 1.4235
x2 = 0.9551 | 1195.04 | 1.4223

ClCCCCl [1,3-dichloropropane] + CCCCn1cc[n+](C)c1.F[B-](F)(F)F
Settings | mass density, [2] [kg/m3] | refractive index, [1]
x2 = 0.0536 | 1184.13 | 1.4448
x2 = 0.1135 | 1187.8 | 1.443
x2 = 0.1516 | 1189.78 | 1.4418
x2 = 0.2101 | 1192.32 | 1.4401
x2 = 0.2817 | 1194.71 | 1.4381
x2 = 0.3528 | 1196.53 | 1.4359
x2 = 0.4042 | 1197.51 | 1.4345
x2 = 0.4626 | 1198.41 | 1.433
x2 = 0.5254 | 1199.14 | 1.4314
x2 = 0.5466 | 1199.38 | 1.4309
x2 = 0.5955 | 1199.76 | 1.4296
x2 = 0.6786 | 1200.34 | 1.4276
x2 = 0.7863 | 1200.89 | 1.4255
x2 = 0.9028 | 1201.2 | 1.4234

CCOCCOCCO [3,6-dioxa-1-octanol]
Settings | mass density [kg/m3] | refractive index
[3] | – | 1.4253
[4] | 983.68 | –

C[N+](=O)[O-] [nitromethane]
Settings | mass density [kg/m3] | refractive index
[3] | – | 1.3796
[4] | 1131.17 | –

C[N+](=O)[O-] [nitromethane] + CCCCn1cc[n+](C)c1.F[B-](F)(F)F
Settings | mass density, [2] [kg/m3] | refractive index, [1]
x2 = 0.0512 | 1148.18 | 1.3889
x2 = 0.0991 | 1158.64 | 1.3952
x2 = 0.1392 | 1165.19 | 1.399
x2 = 0.2026 | 1173.12 | 1.4038
x2 = 0.2986 | 1181.43 | 1.4089
x2 = 0.3565 | 1185.14 | 1.4112
x2 = 0.3972 | 1187.27 | 1.4125
x2 = 0.4553 | 1189.89 | 1.4142
x2 = 0.5231 | 1192.3 | 1.4158
x2 = 0.5949 | 1194.48 | 1.4172
x2 = 0.6863 | 1196.69 | 1.4188
x2 = 0.8073 | 1198.86 | 1.4202
x2 = 0.8634 | 1199.69 | 1.4207

ClCCCCl [1,3-dichloropropane] + CCCCn1cc[n+](C)c1.COS(=O)(=O)[O-]
Settings | mass density, [2] [kg/m3] | refractive index, [1]
x2 = 0.0429 | 1183.63 | 1.4499
x2 = 0.0674 | 1185.62 | 1.4518
x2 = 0.104 | 1188.24 | 1.4543
x2 = 0.1376 | 1190.37 | 1.4564
x2 = 0.1894 | 1193.17 | 1.4596
x2 = 0.2496 | 1195.76 | 1.4624
x2 = 0.3166 | 1198.02 | 1.4654
x2 = 0.3917 | 1200.02 | 1.4677
x2 = 0.4881 | 1201.98 | 1.4706
x2 = 0.5686 | 1203.19 | 1.4725
x2 = 0.6797 | 1204.61 | 1.4747
x2 = 0.7887 | 1205.73 | 1.4765
x2 = 0.8987 | 1206.82 | 1.4784
